Legend:
[1] = test system: anti-CD3 induced interleukin-2 (IL-2) production; experiment: anti-CD3 induced IL-2 production in mice; format: in vivo; settings: subcutaneous dose 30 mg/kg
Description: The compounds of the invention were also tested in vivo.

PKCθ = PKCθ (Homo sapiens, UniProt Q04759); experiment: Ki Pan Vera (PV) PKCθ; format: biochemical
Description: (§1) For Ki Pan Vera (PV) of PKCθ, entries identified with “A” had values below 100 nM; entries identified with “B” had values below 1 μM.

PKC delta = PKC delta (Homo sapiens, UniProt Q05655); experiment: Ki Pan Vera (PV) PKC delta; format: biochemical
SGK1 = molecular target: T1, SGK1 (Homo sapiens, UniProt O00141); experiment: IC50 for kinase SGK (selectivity); format: biochemical
T1 sequence (O00141 1-431): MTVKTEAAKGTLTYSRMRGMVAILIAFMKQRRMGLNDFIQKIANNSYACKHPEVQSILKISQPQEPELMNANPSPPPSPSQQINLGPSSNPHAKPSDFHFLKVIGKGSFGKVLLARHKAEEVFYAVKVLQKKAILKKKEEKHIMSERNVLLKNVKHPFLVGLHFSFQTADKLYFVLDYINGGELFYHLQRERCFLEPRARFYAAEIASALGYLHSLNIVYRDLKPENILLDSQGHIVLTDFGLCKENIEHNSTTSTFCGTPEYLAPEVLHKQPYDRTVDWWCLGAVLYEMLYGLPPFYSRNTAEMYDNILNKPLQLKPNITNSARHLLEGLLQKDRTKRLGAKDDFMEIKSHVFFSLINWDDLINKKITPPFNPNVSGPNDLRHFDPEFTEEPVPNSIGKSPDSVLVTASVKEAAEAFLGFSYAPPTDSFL
Description: Entries identified with “1” had values above 15 nM; entries identified with “2” had values above 100 nM; entries identified with “3” had values above 1 μM; entries identified with “4” had values above 10 μM. In Table 2, “nd” stands for “not determined.”

PKC alpha = PKC alpha (Homo sapiens, UniProt P17252); experiment: Ki Pan Vera (PV) PKC alpha; format: biochemical
Description: [Worded in the source for another target; this target is reported under the same test.] as §1

Chain of PKCθ (Q04759 whole entry): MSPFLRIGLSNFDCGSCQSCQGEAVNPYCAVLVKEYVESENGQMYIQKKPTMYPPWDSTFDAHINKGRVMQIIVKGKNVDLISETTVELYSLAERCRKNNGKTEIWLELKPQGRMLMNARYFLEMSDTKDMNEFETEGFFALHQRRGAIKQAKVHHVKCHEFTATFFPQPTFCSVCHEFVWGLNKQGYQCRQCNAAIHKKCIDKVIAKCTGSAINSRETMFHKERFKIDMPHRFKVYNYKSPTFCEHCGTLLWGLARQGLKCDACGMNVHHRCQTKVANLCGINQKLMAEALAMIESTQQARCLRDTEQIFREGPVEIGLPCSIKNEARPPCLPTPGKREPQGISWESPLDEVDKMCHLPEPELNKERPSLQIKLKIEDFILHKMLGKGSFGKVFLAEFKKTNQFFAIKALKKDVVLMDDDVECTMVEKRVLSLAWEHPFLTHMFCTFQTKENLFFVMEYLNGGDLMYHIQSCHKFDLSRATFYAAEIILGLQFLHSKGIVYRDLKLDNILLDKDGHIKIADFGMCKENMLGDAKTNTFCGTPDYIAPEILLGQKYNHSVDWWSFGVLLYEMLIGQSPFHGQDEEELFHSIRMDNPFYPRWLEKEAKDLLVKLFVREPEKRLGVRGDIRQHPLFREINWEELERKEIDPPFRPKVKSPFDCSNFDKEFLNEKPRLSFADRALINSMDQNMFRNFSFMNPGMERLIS
Chain of PKC delta (Q05655 whole entry): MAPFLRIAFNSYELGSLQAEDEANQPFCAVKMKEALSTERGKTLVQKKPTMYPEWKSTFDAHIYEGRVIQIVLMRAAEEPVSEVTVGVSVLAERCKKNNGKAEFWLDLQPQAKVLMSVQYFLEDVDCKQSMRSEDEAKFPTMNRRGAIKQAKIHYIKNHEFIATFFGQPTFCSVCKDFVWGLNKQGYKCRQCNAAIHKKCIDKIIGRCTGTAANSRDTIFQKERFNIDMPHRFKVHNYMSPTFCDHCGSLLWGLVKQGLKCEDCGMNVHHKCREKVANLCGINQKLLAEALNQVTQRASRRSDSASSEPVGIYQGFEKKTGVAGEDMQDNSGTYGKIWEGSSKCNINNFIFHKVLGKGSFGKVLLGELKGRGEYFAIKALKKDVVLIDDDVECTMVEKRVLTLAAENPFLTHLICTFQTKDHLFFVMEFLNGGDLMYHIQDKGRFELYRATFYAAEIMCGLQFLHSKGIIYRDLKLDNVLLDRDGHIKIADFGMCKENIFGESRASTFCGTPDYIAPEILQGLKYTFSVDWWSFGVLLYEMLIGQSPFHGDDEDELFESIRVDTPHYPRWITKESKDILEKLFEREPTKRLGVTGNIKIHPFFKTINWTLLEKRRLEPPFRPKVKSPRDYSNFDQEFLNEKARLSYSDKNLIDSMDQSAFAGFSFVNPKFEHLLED

Row | Ki (PKCθ) [µM] | Ki (PKC delta) [µM] | IC50-SGK1 (nM) (SGK1) | Ki (PKC alpha) [µM] | Compound | % inhibition of IL-2 production [1] [%]
1 | < 0.1 | > 0.1 | Inactive | > 10 | NCCCNc1ncc2[nH]c(=O)n(Cc3c(Cl)cccc3Cl)c2n1 [Compound 120, 9-(2,6-dichlorobenzyl)-2-(3-aminopropylamino)-7H-purin-8(9H)-one] | 40
2 | < 0.1 | > 0.015 | – | > 1 | O=c1[nH]c2cnc(NC[C@@H]3CCNC3)nc2n1Cc1cccc(Cl)c1Cl [Compound 107] | 45

Reference: patent publication US7989459B2, “Purinones and 1H-imidazopyridinones as PKC-theta inhibitors” (Pharmacopeia, LLC, priority 2006, dated 2011)
